Results published in patent US4107424A, “1-N-[(S)-α-hydroxy-ω-aminoacyl] derivatives of 3',4'-dideoxykanamycin B and 3'-deoxykanamycin B antibiotics” (Zaidan Hojin Biseibutsu Kagaku Kenkyu Kai, priority 1972, dated 1978).
Converted amounts (≈) assume the structure as drawn.

Legend:
[1] = system: Pseudomonas aeruginosa 99; assay: Minimal inhibitory concentration, agar dilution streak method; assay type: cell-based; conditions: nutrient agar, 37° C, 18 hours, read-out: minimum inhibitory concentrations
Method: (§1) [α]D^22 + 38°, (c 0.85, water).
(§2) *Agar Agar dilution streak method (nutrient agar, 37° C, 18 hours)
(§3) *Agar dilution streak method (nutrient agar, 37° C, 18 hours).

[2] = system: Escherichia coli K-12 JR 66/W 677; assay: as above; assay type: cell-based; conditions: Escherichia coli, 18 h, read-out: minimum inhibitory concentrations
Method: as §2, §3

[3] = system: Escherichia coli K-12 LA 290 R 55; assay: as above; assay type: cell-based; conditions: 18 h, read-out: minimum inhibitory concentrations
Method: as §2, §3

[4] = system: Escherichia coli K-12 LA 290 R 56; assay: as above; assay type: cell-based; conditions: 18 h, read-out: minimum inhibitory concentrations
Method: as §2, §3

[5] = system: Escherichia coli K-12 LA 290 R 64; assay: as above; assay type: cell-based; conditions: nutrient agar, 37° C, 18 hours, read-out: minimum inhibitory concentrations
Method: as §2, §3

[6] = system: Escherichia coli K-12 ML 1410 R 81; assay: as above; assay type: cell-based; conditions: 18 h, read-out: minimum inhibitory concentrations
Method: as §2, §3

[7] = system: Escherichia coli K-12 ML 1410; assay: as above; assay type: cell-based; conditions: K12ML1410, nutrient agar, 37° C, 18 hours, read-out: minimum inhibitory concentrations
Method: as §2, §3

[8] = system: Escherichia coli K-12 ML 1629; assay: as above; assay type: cell-based; conditions: K12ML1629, nutrient agar, 37° C, 18 hours, drug-resistant strain, read-out: minimum inhibitory concentrations
Method: as §2, §3

[9] = system: Escherichia coli K-12 ML 1630; assay: as above; assay type: cell-based; conditions: K12ML1630, nutrient agar, 37° C, 18 hours, read-out: minimum inhibitory concentrations
Method: as §2, §3

[10] = system: Escherichia coli K-12 W 677; assay: as above; assay type: cell-based; conditions: K12W677, nutrient agar, 37° C, 18 hours, read-out: minimum inhibitory concentrations
Method: as §2, §3

Escherichia coli K-12 = assay: as above; assay type: cell-based; conditions: K12, nutrient agar, 37° C, 18 hours, read-out: minimum inhibitory concentrations
Method: as §2, §3

[11] = system: Pseudomonas aeruginosa A 3; assay: as above; assay type: cell-based; conditions: A3, nutrient agar, 37° C, 18 hours, read-out: minimum inhibitory concentrations
Method: as §2, §3

[12] = system: Pseudomonas aeruginosa No.12; assay: as above; assay type: cell-based; conditions: nutrient agar, 37° C, 18 hours, read-out: minimum inhibitory concentrations
Method: as §2, §3

[13] = system: Pseudomonas aeruginosa TI-13; assay: as above; assay type: cell-based; conditions: TI13, nutrient agar, 37° C, 18 hours, read-out: minimum inhibitory concentrations
Method: as §2, §3

[14] = system: Staphylococcus aureus FDA 209P; assay: as above; assay type: cell-based; conditions: FDA209P, nutrient agar, 37° C, 18 hours, read-out: minimum inhibitory concentrations
Method: as §2, §3

[15] = system: gram-positive and gram-negative bacteria; assay: Antibacterial activity (in words); assay type: cell-based; conditions: for antibacterial activity compared with parent or reference substance: sensitive (and resistant) bacteria; for antibacterial activity: various gram-positive and gram-negative bacteria, including resistant strains
Method: as §1

in vivo = conditions: mouse, iv
mice = assay: Acute intravenous toxicity (LD50) in mice; conditions: in words
[16] = system: Pseudomonas aeruginosa GN 315; assay: Minimal inhibitory concentration, agar dilution streak method; assay type: cell-based; conditions: GN315, nutrient agar, 37° C, 18 hours, drug-resistant strain, read-out: minimum inhibitory concentrations
Method: as §2, §3

Structure (SMILES) | MIC [1] [µg/mL] | MIC [2] [µg/mL] | MIC [3] [µg/mL] | MIC [4] [µg/mL] | MIC [5] [µg/mL] | MIC [6] [µg/mL] | MIC [7] [µg/mL] | MIC [8] [µg/mL] | MIC [9] [µg/mL] | MIC [10] [µg/mL] | MIC (Escherichia coli K-12) [µg/mL] | MIC [11] [µg/mL] | MIC [12] [µg/mL] | MIC [13] [µg/mL] | MIC [14] [µg/mL] | antibacterial activity compared with parent or reference substance [15] | antibacterial activity [15] | LD50 (in vivo) [mg/kg] | toxicity (mice) | MIC [16] [µg/mL]
NCC[C@H](O)C(=O)N[C@@H]1C[C@H](N)[C@@H](O[C@H]2O[C@H](CN)CC[C@H]2N)[C@H](O)[C@H]1O[C@H]1O[C@H](CO)[C@@H](O)[C@H](N)[C@H]1O [AHB-dideoxykanamycin B, 1-N-[(S)-4-amino-2-hydroxy-n-butyryl]-3',4'-dideoxykanamycin B] | 12.5 (≈ 22.6 µM) | 1.56 (≈ 2.82 µM) | 0.78 (≈ 1.41 µM) | 0.39 (≈ 0.706 µM) | 0.78 (≈ 1.41 µM) | 1.56 (≈ 2.82 µM) | 0.78 (≈ 1.41 µM) | 0.78 (≈ 1.41 µM) | 0.78 (≈ 1.41 µM) | 0.39 (≈ 0.706 µM) | 0.78 (≈ 1.41 µM) | 3.12 (≈ 5.65 µM) | 1.56 (≈ 2.82 µM) | 3.12 (≈ 5.65 µM) | 0.78 (≈ 1.41 µM) | stronger antibacterial activity than those of kanamycin A and 3',4'-dideoxykanamycin B | high antibacterial activity against drug-resistant strains such as Staphylococcus aureus, Escherichia coli and Pseudomonas aeruginosa strains which are resistant to kanamycin and DKB | > 150 | toxicity as low as that of kanamycin | 
NC[C@H]1O[C@H](O[C@H]2[C@H](O[C@@H]3O[C@H](CO)[C@@H](O)[C@H]3O)[C@@H](O)[C@H](N)C[C@@H]2N)[C@H](N)C[C@@H]1O [3'-deoxyribostamycin] |  | > 100 | > 100 |  |  |  |  | > 100 |  |  |  |  |  |  |  |  |  |  |  | > 100
NCC[C@H](O)C(=O)N[C@@H]1C[C@H](N)[C@@H](O[C@H]2O[C@H](CN)[C@@H](O)C[C@H]2N)[C@H](O)[C@H]1O [AHB-deoxyneamine, 1-N-[(S)-4-amino-2-hydroxybutyryl]-3'-deoxyneamine] |  | 6.25 (≈ 15.3 µM) | 6.25 (≈ 15.3 µM) |  |  |  | 6.25 (≈ 15.3 µM) | 6.25 (≈ 15.3 µM) |  | 6.25 (≈ 15.3 µM) |  | 6.25 (≈ 15.3 µM) | 6.25 (≈ 15.3 µM) |  | 3.12 (≈ 7.66 µM) | antibacterial activity as high as that of their parent substances | high antibacterial activity against the kanamycin-resistant strains | > 100 | toxicity as low as that of their parent substances | > 100
CNC[C@H]1O[C@H](O[C@H]2[C@H](O)[C@@H](O[C@H]3O[C@H](CO)[C@@H](O)[C@H](N)[C@H]3O)[C@H](NC(=O)[C@@H](O)CCN)C[C@@H]2N)[C@H](N)C[C@@H]1O [AHB-methyldeoxykanamycin B, 1-N-[(S)-4-amino-2-hydroxybutyryl]-3'-deoxy-6'-N-methylkanamycin B] |  | 3.12 (≈ 5.35 µM) | 0.78 (≈ 1.34 µM) |  |  |  | 0.78 (≈ 1.34 µM) | 0.78 (≈ 1.34 µM) |  | 3.12 (≈ 5.35 µM) |  | 0.78 (≈ 1.34 µM) | 0.78 (≈ 1.34 µM) |  | 0.78 (≈ 1.34 µM) | antibacterial activity as high as that of their parent substances | high antibacterial activity against the kanamycin-resistant strains | > 100 | toxicity as low as that of their parent substances | 6.25 (≈ 10.7 µM)
NC[C@H]1O[C@H](O[C@H]2[C@H](O)[C@@H](O[C@H]3O[C@H](CO)[C@@H](O)[C@H](N)[C@H]3O)[C@H](N)C[C@@H]2N)[C@H](N)C[C@@H]1O [3'-deoxykanamycin B] |  | 50 (≈ 107 µM) | 50 (≈ 107 µM) |  |  |  |  | 0.78 (≈ 1.67 µM) |  |  |  |  |  |  |  |  |  |  |  | 100 (≈ 214 µM)
NCC[C@H](O)C(=O)N[C@@H]1C[C@H](N)[C@@H](O[C@H]2O[C@H](CN)[C@@H](O)C[C@H]2N)[C@H](O)[C@H]1O[C@H]1O[C@H](CO)[C@@H](O)[C@H](N)[C@H]1O [AHB-deoxykanamycin B, 1-N-[(S)-4-amino-2-hydroxybutyryl]-3'-deoxykanamycin B] |  | 3.12 (≈ 5.49 µM) | 0.78 (≈ 1.37 µM) |  |  |  | 0.78 (≈ 1.37 µM) | 0.78 (≈ 1.37 µM) |  | 1.56 (≈ 2.74 µM) |  | 0.78 (≈ 1.37 µM) | 0.78 (≈ 1.37 µM) |  | 0.78 (≈ 1.37 µM) | antibacterial activity as high as that of their parent substances | high antibacterial activity against the kanamycin-resistant strains | > 100 | toxicity as low as that of their parent substances | 50 (≈ 87.9 µM)
NCC[C@H](O)C(=O)N[C@@H]1C[C@H](N)[C@@H](O[C@H]2O[C@H](CN)[C@@H](O)C[C@H]2N)[C@H](O[C@@H]2O[C@H](CO)[C@@H](O)[C@H]2O)[C@H]1O [AHB-deoxyribostamycin, 1-N-[(S)-4-amino-2-hydroxybutyryl]-3'-deoxyribostamycin] |  | 3.12 (≈ 5.78 µM) | 1.56 (≈ 2.89 µM) |  |  |  | 0.78 (≈ 1.45 µM) | 1.56 (≈ 2.89 µM) |  | 0.78 (≈ 1.45 µM) |  | 1.56 (≈ 2.89 µM) | 3.12 (≈ 5.78 µM) |  | 1.56 (≈ 2.89 µM) | antibacterial activity as high as that of their parent substances | high antibacterial activity against the kanamycin-resistant strains | > 100 | toxicity as low as that of their parent substances | > 100
CNC[C@H]1O[C@H](O[C@H]2[C@H](O)[C@@H](O[C@H]3O[C@H](CO)[C@@H](O)[C@H](N)[C@H]3O)[C@H](N)C[C@@H]2N)[C@H](N)C[C@@H]1O [3'-deoxy-6'-N-methylkanamycin B] |  | 50 (≈ 104 µM) | 50 (≈ 104 µM) |  |  |  |  | 1.56 (≈ 3.24 µM) |  |  |  |  |  |  |  |  |  |  |  | 6.25 (≈ 13 µM)
